Experimental data reported in US20040052750A1, “Compositions for prevention and alleviation of skin wrinkles” (priority 2000, published 2004).
Where a name gives a salt, the structure may show the parent alone.

Experiments:
[1] = test system: fibroblasts derived from a human; test: Promoting collagen production in fibroblasts (3H-proline incorporation into collagenase-sensitive protein); type: cell-based; settings: control = 100%
Description: The experimental protocol in detail is as follows.
Human-derived fibroblasts were transferred to a 24 well plate and cultured in a medium containing 10% fetal bovine serum (FBS) for 24 hours, followed by washing twice with phosphate buffered saline. […] After the incubation was terminated, cells from each group were harvested and two fractions of each culture were prepared. One fraction from each culture was treated with collagenase. To all fractions was added trichloroacetic acid to precipitate proteins. The amount of radioactivity incorporated into collagenase-sensitive protein was measured and compared with that of the other fraction which was not treated with collagenase. The difference in radioactivity was attributed to the promoting effect of the compound.

hairless mice [2] = test: Inhibiting the generation of wrinkles in hairless mice (simulated sunlight); type: in vivo; settings: 10 per group
Description: 6-week hairless mice were placed into 21 experimental groups and 3 control groups, with 10 rats per group. […] The experimental protocol in detail is as follows. Hairless mice were radiated using simulated sunlight at a dose of 2 MED (double Minimal Erythema Dose) 3 days a week for […], thereby generating wrinkles. Respective active ingredients or the solvent only were applied twice every day (specifically, on radiation days, the application was performed at 30 min before and after the radiation), at a volume of 100 μl each for 10 weeks from the first radiation day. Degrees of inhibition of generated wrinkles were determined. The determination was performed by visual observation with naked eyes and photography.

rat skin = test: Promotion of collagen production in rat skin (hydroxyproline in implanted PVA sponge); type: in vivo, SD rats; settings: 200 μl every day for 10 days, control = 100%
Description: In brief, 5-week male SD rats were grouped with 5 rats per group. The rats were each incised 1 cm in the center of their abdomens and PVA sponges (Unipoint ind.) were inserted therein. After suturing, as for experimental groups, respective active ingredients to be examined were applied to the PVA sponge-embeded regions i n a volume o f 200 μl every day for 10 days. Upon autopsy, the PVA sponge was removed to quantify hydroxyproline. The PVA sponge was added with 4 ml of 6 N HCl, hydrolized at 130° C. for 3 hours and was subjected to complete drying. 50 μl of methanol was added and the solution was incubated at 110° C. until HCl was removed. 1.2 ml of 50% isopropanol was added to dissolve the remaining precipitate. 200 μl of chloramine-T (sodium p-toluensulfochloramide trihydrate) solution was added while stirring, and let stand for 10 min. After adding 1.2 ml of Ehrlich reagent and mixing, the solution was incubated at 50° C. for 90 min. The resulting solution was cooled to room temperature and absorbance at 558 nm was measured. Hydroxyproline standard solutions were prepared by dissolving 1 mg hydroxyproline in 1 ml HCl and diluting it to concentrations of 0, 0.2, 0.4, 0.8, 1 mg each relative to 25 μl of 6 N HCl. The standard solutions were hydrolyzed at 130° C. for 3 hours. The quantified value of hydroxyproline, relative to hydroxyproline value (100%) of the control group which was applied with solvent only, are shown in Table 2.

hairless mice [3] = test: Alleviating photo-induced wrinkles in hairless mice; type: in vivo; settings: twice a day for 6 weeks, 10 per group
Description: Mice were placed into 21 experimental groups and 3 control groups, with 10 rats per group. […] The experimental protocol is as follows. Hairless mice were radiated using a simulated sunlight at a dose of 2 MED (double Minimal Erythema Dose) 3 days a week for 10 weeks, thereby generating wrinkles. Then, respective active ingredients or the solvent only were applied at a volume of 100 μl each, twice a day for 6 weeks. Degrees of wrinkle reduction were determined. The determination was performed by visually observing the compound-applied region with naked eyes, and the region was photographed. The degrees of alleviation of wrinkles in the compound-treatment groups (experimental groups) were compared with those of the control group and were determined as one of 4 stages, that is, none (Score 0), slight (Score 1), moderate (Score 2) and high (Score 3), and the corresponding mice were counted.

SMILES	Effect of promoting collagen production in fibroblasts (rate of collagen production) ([1]; 10^-5 M)	Effect of promoting collagen production in fibroblasts (rate of collagen production) ([1]; 10^-6 M)	Effect of promoting collagen production in fibroblasts (rate of collagen production) ([1]; 10^-7 M)	Effect of promoting collagen production in fibroblasts (rate of collagen production) ([1]; 10^-8 M)	Inhibition of wrinkles, Score 0 (none) (hairless mice [2]; 10^-3 M)	Inhibition of wrinkles, Score 1 (slight) (hairless mice [2]; 10^-3 M)	Inhibition of wrinkles, Score 2 (moderate) (hairless mice [2]; 10^-3 M)	Inhibition of wrinkles, Score 3 (high) (hairless mice [2]; 10^-3 M)	Inhibition of wrinkles, Score 0 (none) (hairless mice [2]; 10^-5 M)	Inhibition of wrinkles, Score 1 (slight) (hairless mice [2]; 10^-5 M)	Inhibition of wrinkles, Score 2 (moderate) (hairless mice [2]; 10^-5 M)	Inhibition of wrinkles, Score 3 (high) (hairless mice [2]; 10^-5 M)	Inhibition of wrinkles, Score 0 (none) (hairless mice [2]; 10^-8 M)	Inhibition of wrinkles, Score 1 (slight) (hairless mice [2]; 10^-8 M)	Inhibition of wrinkles, Score 2 (moderate) (hairless mice [2]; 10^-8 M)	Inhibition of wrinkles, Score 3 (high) (hairless mice [2]; 10^-8 M)	Effect of promoting collagen production in animal skin (hydroxyproline value vs control) (rat skin; 10^-5 M)	Effect of promoting collagen production in animal skin (hydroxyproline value vs control) (rat skin; 10^-6 M)	Effect of promoting collagen production in animal skin (hydroxyproline value vs control) (rat skin; 10^-7 M)	Effect of promoting collagen production in animal skin (hydroxyproline value vs control) (rat skin; 10^-8 M)	also measured
CCCC(CCC)C(=O)O [Valproic acid]	370.21%	332.11%	283.24%	201.13%	0 number of mice	0 number of mice	2 number of mice	8 number of mice	0 number of mice	1 number of mice	2 number of mice	7 number of mice	0 number of mice	1 number of mice	1 number of mice	8 number of mice	178.13%	157.72%	139.24%	128.05%	Reduction of wrinkles, Score 0 (none) (hairless mice [3]; 10^-3 M): 0 number of mice; Reduction of wrinkles, Score 1 (slight) (hairless mice [3]; 10^-3 M): 0 number of mice; Reduction of wrinkles, Score 2 (moderate) (hairless mice [3]; 10^-3 M): 2 number of mice; Reduction of wrinkles, Score 3 (high) (hairless mice [3]; 10^-3 M): 8 number of mice; Reduction of wrinkles, Score 0 (none) (hairless mice [3]; 10^-5 M): 0 number of mice; Reduction of wrinkles, Score 1 (slight) (hairless mice [3]; 10^-5 M): 1 number of mice; Reduction of wrinkles, Score 2 (moderate) (hairless mice [3]; 10^-5 M): 2 number of mice; Reduction of wrinkles, Score 3 (high) (hairless mice [3]; 10^-5 M): 7 number of mice; Reduction of wrinkles, Score 0 (none) (hairless mice [3]; 10^-8 M): 0 number of mice; Reduction of wrinkles, Score 1 (slight) (hairless mice [3]; 10^-8 M): 1 number of mice; Reduction of wrinkles, Score 2 (moderate) (hairless mice [3]; 10^-8 M): 2 number of mice; Reduction of wrinkles, Score 3 (high) (hairless mice [3]; 10^-8 M): 7 number of mice
COc1ccc(CCN(C)CCCC(C#N)(c2ccc(OC)c(OC)c2)C(C)C)cc1OC (stereo not shown) [Verapamil HCl]	355.12%	331.09%	280.23%	183.25%	0 number of mice	0 number of mice	1 number of mice	9 number of mice	0 number of mice	1 number of mice	2 number of mice	7 number of mice	0 number of mice	1 number of mice	1 number of mice	8 number of mice	183.32%	167.06%	147.39%	135.63%	Reduction of wrinkles, Score 0 (none) (hairless mice [3]; 10^-3 M): 0 number of mice; Reduction of wrinkles, Score 1 (slight) (hairless mice [3]; 10^-3 M): 1 number of mice; Reduction of wrinkles, Score 2 (moderate) (hairless mice [3]; 10^-3 M): 2 number of mice; Reduction of wrinkles, Score 3 (high) (hairless mice [3]; 10^-3 M): 7 number of mice; Reduction of wrinkles, Score 0 (none) (hairless mice [3]; 10^-5 M): 0 number of mice; Reduction of wrinkles, Score 1 (slight) (hairless mice [3]; 10^-5 M): 2 number of mice; Reduction of wrinkles, Score 2 (moderate) (hairless mice [3]; 10^-5 M): 1 number of mice; Reduction of wrinkles, Score 3 (high) (hairless mice [3]; 10^-5 M): 7 number of mice; Reduction of wrinkles, Score 0 (none) (hairless mice [3]; 10^-8 M): 0 number of mice; Reduction of wrinkles, Score 1 (slight) (hairless mice [3]; 10^-8 M): 2 number of mice; Reduction of wrinkles, Score 2 (moderate) (hairless mice [3]; 10^-8 M): 2 number of mice; Reduction of wrinkles, Score 3 (high) (hairless mice [3]; 10^-8 M): 6 number of mice
